Data published in paper PMC7998309, “Structural-Based Optimizations of the Marine-Originated Meridianin C as Glucose Uptake Agents by Inhibiting GSK-3β” (Marine Drugs, 2021).

Experiments:
[1] = MTT assay for cell viability (cytotoxicity); format: cell-based, human; details: human; HepG2 cells, 48 h incubation, MTT
Protocol: The hepatocyte cell line HepG2 cells obtained from the Type Culture Collection of the Chinese Academy of Sciences (Shanghai, China) were maintained in high-glucose DMEM (Gibco) supplemented with 10% fetal bovine serum (FBS) and 1% penicillin-streptomycin in an atmosphere of 5% CO2 at 37 °C.
Into a 96-well plate, 1 × 10^3 HepG2 cells per well were seeded. After 24 h, stock solutions of test compounds in DMSO were diluted in DMEM to ≤0.1% final DMSO concentration. Cells were treated with various concentrations (2.5–25 µM) of tested compounds for 48 h, and the MTT solution (0.5 mg/mL) was added. After 4 h of incubation at 37 °C for MTT-formazan formation, the supernatant was discarded and 100 µL of DMSO was applied into each well to dissolve formazan crystals. Absorbance at 490 nm was determined spectrophotometrically by using a microplate reader (Epoch, BioTek Instruments, Inc., Winooski, VT, USA).

Row | Structure (SMILES) | CC50 at 48 h [1] [µM] | melting point [°C]
1 | Cc1cc(C)cc(Nc2nccc(-c3c[nH]c4ccc(Br)cc34)n2)c1 [B27, 4-(5-Bromo-1H-indol-3-yl)-N-(3,5-dimethylphenyl) pyrimidin-2-amine] | 6 | 184.6 to 185.3
2 | Nc1ncc(-c2ccc(NC(=O)c3ccc4ccccc4c3)cc2)c(-c2c[nH]c3ccc(Br)cc23)n1 [A29, N-(4-(2-amino-4-(5-bromo-1H-indol-3-yl)pyrimidin-5-yl)phenyl)-2-naphthamide] | > 25 | 189.3 to 190.2
3 | Nc1ncc(-c2ccc(NC(=O)c3cccc(Br)c3)cc2)c(-c2c[nH]c3ccc(Br)cc23)n1 [A14, N-(4-(2-amino-4-(5-bromo-1H-indol-3-yl)pyrimidin-5-yl)phenyl)-3-bromobenzamide] | > 25 | 176.6 to 177.3
4 | Cc1ccc(Nc2nccc(-c3c[nH]c4ccc(Br)cc34)n2)cc1 [B15, 4-(5-Bromo-1H-indol-3-yl)-N-(p-tolyl) pyrimidin-2-amine] | 15.5 | 227.8 to 228.6
5 | FC(F)(F)c1cc(Nc2nccc(-c3c[nH]c4ccc(Br)cc34)n2)cc(C(F)(F)F)c1 [B26, N-(3,5-bis(trifluoromethyl)phenyl)-4-(5-bromo-1H-indol-3-yl) pyrimidin-2-amine] | 11.8 | 220.9 to 221.3
6 | FC(F)(F)c1ccc(Nc2nccc(-c3c[nH]c4ccc(Br)cc34)n2)cc1 [B12, 4-(5-Bromo-1H-indol-3-yl)-N-(4-(trifluoromethyl)phenyl) pyrimidin-2-amine] | > 25 | 279.5 to 280.3
7 | Cc1cccc(Nc2nccc(-c3c[nH]c4ccc(Br)cc34)n2)c1 [B14, 4-(5-Bromo-1H-indol-3-yl)-N-(m-tolyl) pyrimidin-2-amine] | 8.6 | 141.5 to 142.3
8 | Nc1ncc(-c2ccc(NC(=O)c3cccc(Cl)c3)cc2)c(-c2c[nH]c3ccc(Br)cc23)n1 [A11, N-(4-(2-amino-4-(5-bromo-1H-indol-3-yl)pyrimidin-5-yl)phenyl)-3-chlorobenzamide] | 18.5 | 204.8 to 205.2
9 | Clc1cc(Cl)cc(Nc2nccc(-c3c[nH]c4ccc(Br)cc34)n2)c1 [B24, 4-(5-Bromo-1H-indol-3-yl)-N-(3,5-dichlorophenyl) pyrimidin-2-amine] | 10.5 | 223.6 to 224.3
10 | CC(C)(C)C(=O)Nc1ccc(-c2cnc(N)nc2-c2c[nH]c3ccc(Br)cc23)cc1 [A4, N-(4-(2-amino-4-(5-bromo-1H-indol-3-yl)pyrimidin-5-yl)phenyl) Pivalamide] | 11.9 | 139.6 to 140.3
11 | Nc1ncc(-c2ccc(NC(=O)c3cccc(C(F)(F)F)c3)cc2)c(-c2c[nH]c3ccc(Br)cc23)n1 [A17, N-(4-(2-amino-4-(5-bromo-1H-indol-3-yl)pyrimidin-5-yl)phenyl)-3-(trifluoromethyl) Benzamide] | 14.3 | 172.6 to 173.3
12 | Nc1ncc(-c2ccc(NC(=O)c3ccccc3C(F)(F)F)cc2)c(-c2c[nH]c3ccc(Br)cc23)n1 [A16, N-(4-(2-amino-4-(5-bromo-1H-indol-3-yl)pyrimidin-5-yl)phenyl)-2-(trifluoromethyl) Benzamide] | 9.9 | 163.6 to 164.3
13 | Brc1cccc(Nc2nccc(-c3c[nH]c4ccc(Br)cc34)n2)c1 [B8, 4-(5-Bromo-1H-indol-3-yl)-N-(3-bromophenyl) pyrimidin-2-amine] | 18.7 | 214.8 to 215.6
14 | COc1ccc(C(=O)Nc2ccc(-c3cnc(N)nc3-c3c[nH]c4ccc(Br)cc34)cc2)cc1 [A24, N-(4-(2-amino-4-(5-bromo-1H-indol-3-yl)pyrimidin-5-yl)phenyl)-4-methoxybenzamide] | 4.3 | 184.6 to 185.3
15 | CC(C)c1ccc(Nc2nccc(-c3c[nH]c4ccc(Br)cc34)n2)cc1 [B21, 4-(5-Bromo-1H-indol-3-yl)-N-(4-isopropylphenyl) pyrimidin-2-amine] | 13 | 218.7 to 219.4
16 | Nc1ncc(-c2ccc(NC(=O)c3ccc(C(F)(F)F)cc3)cc2)c(-c2c[nH]c3ccc(Br)cc23)n1 [A18, N-(4-(2-amino-4-(5-bromo-1H-indol-3-yl)pyrimidin-5-yl)phenyl)-4-(trifluoromethyl) Benzamide] | 4.2 | 312.7 to 313.4
17 | Nc1ncc(-c2ccc(NC(=O)c3cc4ccccc4cn3)cc2)c(-c2c[nH]c3ccc(Br)cc23)n1 [A28, N-(4-(2-amino-4-(5-bromo-1H-indol-3-yl)pyrimidin-5-yl)phenyl) isoquinoline-3-carboxamide] | > 25 | 189.3 to 190.2

Row | Structure (SMILES) | CC50 at 48 h [1] [µM] | melting point [°C]
18 | Nc1ncc(-c2ccc(NC(=O)c3ccccc3)cc2)c(-c2c[nH]c3ccc(Br)cc23)n1 [A6, N-(4-(2-amino-4-(5-bromo-1H-indol-3-yl)pyrimidin-5-yl)phenyl) Benzamide] | 12.5 | 187.9 to 188.6
19 | Nc1ncc(-c2ccc(NC(=O)c3cccs3)cc2)c(-c2c[nH]c3ccc(Br)cc23)n1 [A27, N-(4-(2-amino-4-(5-bromo-1H-indol-3-yl)pyrimidin-5-yl)phenyl) thiophene-2-carboxamide] | 10 | 303.8 to 304.4
20 | COc1ccccc1C(=O)Nc1ccc(-c2cnc(N)nc2-c2c[nH]c3ccc(Br)cc23)cc1 [A22, N-(4-(2-amino-4-(5-bromo-1H-indol-3-yl)pyrimidin-5-yl)phenyl)-2-methoxybenzamide] | > 25 | 154.9 to 155.6
21 | COc1cccc(Nc2nccc(-c3c[nH]c4ccc(Br)cc34)n2)c1 [B17, 4-(5-Bromo-1H-indol-3-yl)-N-(3-methoxyphenyl) pyrimidin-2-amine] | 10.6 | 208.7 to 209.3
22 | Nc1ncc(-c2ccc(NC(=O)Cc3ccccc3)cc2)c(-c2c[nH]c3ccc(Br)cc23)n1 [A5, N-(4-(2-amino-4-(5-bromo-1H-indol-3-yl)pyrimidin-5-yl)phenyl)-2-phenylacetamide] | 20.9 | 207.6 to 208.4
23 | Cc1ccccc1C(=O)Nc1ccc(-c2cnc(N)nc2-c2c[nH]c3ccc(Br)cc23)cc1 [A19, N-(4-(2-amino-4-(5-bromo-1H-indol-3-yl)pyrimidin-5-yl)phenyl)-2-methylbenzamide] | 10.3 | 170.7 to 171.6
24 | Clc1cccc(Nc2nccc(-c3c[nH]c4ccc(Br)cc34)n2)c1 [B5, 4-(5-Bromo-1H-indol-3-yl)-N-(3-chlorophenyl) pyrimidin-2-amine] | > 25 | 210.3 to 211.4
25 | FC(F)(F)c1cccc(Nc2nccc(-c3c[nH]c4ccc(Br)cc34)n2)c1 [B11, 4-(5-Bromo-1H-indol-3-yl)-N-(3-(trifluoromethyl)phenyl) pyrimidin-2-amine] | 17.6 | 171.8 to 172.3
26 | Brc1ccc2[nH]cc(-c3ccnc(Nc4ccccc4)n3)c2c1 [B22, 4-(5-Bromo-1H-indol-3-yl)-N-phenylpyrimidin-2-amine] | 10.4 | 197.6 to 198.7
27 | Nc1ncc(-c2ccc(NC(=O)c3ccccc3F)cc2)c(-c2c[nH]c3ccc(Br)cc23)n1 [A7, N-(4-(2-amino-4-(5-bromo-1H-indol-3-yl)pyrimidin-5-yl)phenyl)-2-fluorobenzamide] | 18.1 | 159.6 to 160.4
28 | Brc1cc(Br)cc(Nc2nccc(-c3c[nH]c4ccc(Br)cc34)n2)c1 [B25, 4-(5-Bromo-1H-indol-3-yl)-N-(3,5-dibromophenyl) pyrimidin-2-amine] | > 25 | 193.4 to 193.7
29 | Nc1ncc(-c2ccc(NC(=O)c3ccc(F)cc3)cc2)c(-c2c[nH]c3ccc(Br)cc23)n1 [A9, N-(4-(2-amino-4-(5-bromo-1H-indol-3-yl)pyrimidin-5-yl)phenyl)-4-fluorobenzamide] | 6 | 178.6 to 179.4
30 | Nc1ncc(-c2ccc(NC(=O)c3cc(F)ccc3F)cc2)c(-c2c[nH]c3ccc(Br)cc23)n1 [A25, N-(4-(2-amino-4-(5-bromo-1H-indol-3-yl)pyrimidin-5-yl)phenyl)-2,5-difluorobenzamide] | 8.9 | 163.5 to 164.3
31 | CC(C)c1cccc(Nc2nccc(-c3c[nH]c4ccc(Br)cc34)n2)c1 [B20, 4-(5-Bromo-1H-indol-3-yl)-N-(3-isopropylphenyl) pyrimidin-2-amine] | 12.5 | 152.6 to 153.4
32 | COc1cc(Nc2nccc(-c3c[nH]c4ccc(Br)cc34)n2)cc(OC)c1 [B28, 4-(5-Bromo-1H-indol-3-yl)-N-(3,5-dimethoxyphenyl) pyrimidin-2-amine] | 10 | 255.6 to 256.8
33 | Nc1ncc(-c2ccc(NC(=O)c3cccc(F)c3)cc2)c(-c2c[nH]c3ccc(Br)cc23)n1 [A8, N-(4-(2-amino-4-(5-bromo-1H-indol-3-yl)pyrimidiN-5-yl)phenyl)-3-fluorobenzamide] | 6.8 | 183.6 to 184.3
34 | Nc1ncc(-c2ccc(NC(=O)c3ccc(Cl)cc3)cc2)c(-c2c[nH]c3ccc(Br)cc23)n1 [A12, N-(4-(2-amino-4-(5-bromo-1H-indol-3-yl)pyrimidin-5-yl)phenyl)-4-chlorobenzamide] | 7.5 | 261.7 to 262.5
